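Tested at 5 concentrations; 48 h exposure; 96-well plates; endpoints linearly interpolated, else capped at highest concentration. Here, GI50 denotes the concentration required for 50% inhibition of growth. Definition used: TGI = concentration required for complete inhibition of growth.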

Test systems include SF-268 CNS; CAKI-1 renal; NCI-H23 lung; SN12C renal; SW-620 colon; UO-31 renal; HCT-15 colon; RPMI-8226 leukemia; RXF 393 renal; SK-OV-3 ovarian.
Common to all, as to assay: inhibition of tumour cell growth, NCI panel, 48 h

As to `COc1cccc(/C(C)=N/NC(=O)CSc2nc3ccccc3c(=O)n2CCc2ccc(S(N)(=O)=O)cc2)c1`, the GI50 with SF-268 CNS is 2680 nM; in the assay on CAKI-1 renal it was 3.7 µM; in the assay on NCI-H23 lung, 2860 nM; in the assay on SN12C renal, 4.52 µM; with SW-620 colon it was 2770 nM; in the assay with UO-31 renal it was 2110 nM. For the same compound, the GI50 with HCT-15 colon was 18400 nM; in the assay on RPMI-8226 leukemia, 943 nM; in the assay with RXF 393 renal, 2710 nM; in the assay on SK-OV-3 ovarian, 2.26 µM. For the same compound, the TGI in the assay with SF-268 CNS stood at 7.32 µM; with CAKI-1 renal, 15.4 µM; in the assay with NCI-H23 lung it was 8.47 µM; in the assay on SN12C renal, 19.5 µM; in the assay on SW-620 colon it was 7.5 µM; in the assay on UO-31 renal it was 6.48 µM. Besides, the TGI in the assay on HCT-15 colon was more than 100 µM; in the assay with RPMI-8226 leukemia, more than 100 µM; in the assay with RXF 393 renal it was 7.7 µM; in the assay with SK-OV-3 ovarian, 4.88 µM.
Turning to `COc1cc(NCCN=C(N)NC(N)=NC(C)C)c2ncccc2c1`, the GI50 with SF-268 CNS is 3980 nM; in the assay with CAKI-1 renal, more than 100 µM; with NCI-H23 lung it was 3250 nM; in the assay on SN12C renal, 3.47 µM; in the assay with SW-620 colon, 15400 nM; in the assay on UO-31 renal, more than 100000 nM. Also, the GI50 is more than 86000 nM with HCT-15 colon, 15500 nM with RPMI-8226 leukemia, more than 38500 nM in the assay with RXF 393 renal and 48.8 µM in the assay on SK-OV-3 ovarian. Also, the TGI with SF-268 CNS is more than 100 µM; with CAKI-1 renal it was more than 100 µM; in the assay with NCI-H23 lung, 15.7 µM; in the assay on SN12C renal, 18.2 µM; in the assay with SW-620 colon it was more than 100 µM; in the assay on UO-31 renal it was more than 100 µM. In addition, the TGI is more than 100 µM in the assay with HCT-15 colon, more than 76.4 µM in the assay with RPMI-8226 leukemia, more than 100 µM in the assay with RXF 393 renal and more than 100 µM in the assay with SK-OV-3 ovarian.
`O=C(Nc1cc(Oc2cc(F)c(NC(=O)C3(C(=O)Nc4ccc(F)cc4)CC3)cc2F)ccn1)C1CC1`: the GI50 in the assay on SF-268 CNS is 3090 nM; in the assay with CAKI-1 renal, 3.77 µM; in the assay on NCI-H23 lung, 1310 nM; in the assay on SN12C renal it was 2.68 µM; in the assay on SW-620 colon it was 3120 nM; with UO-31 renal, 2680 nM. The GI50 in the assay with HCT-15 colon is 3000 nM; in the assay with RPMI-8226 leukemia, 2950 nM; in the assay with RXF 393 renal, 2490 nM; in the assay with SK-OV-3 ovarian, 4.04 µM. Further, the TGI was more than 28.5 µM in the assay with SF-268 CNS; more than 100 µM in the assay on CAKI-1 renal; 6.02 µM in the assay on NCI-H23 lung; more than 100 µM in the assay with SN12C renal; more than 100 µM with SW-620 colon; 7.23 µM in the assay on UO-31 renal. The TGI in the assay on HCT-15 colon is more than 54.2 µM; in the assay with RPMI-8226 leukemia, 6.51 µM; in the assay on RXF 393 renal, 4.91 µM; in the assay with SK-OV-3 ovarian, more than 29.9 µM.
Turning to `CC1=C[C@H]2C[C@H](C)[C@H]3CC[C@H](C)[C@]4(C1)C(=O)C(O)=C(C)C(=O)[C@@]324`, the GI50 in the assay on SF-268 CNS was more than 100000 nM; in the assay on CAKI-1 renal, 24.9 µM; in the assay with NCI-H23 lung, 11000 nM; in the assay on SN12C renal, 28.7 µM; in the assay with SW-620 colon it was 31500 nM; with UO-31 renal, 29800 nM. In addition, the GI50 was 32700 nM with HCT-15 colon, 13100 nM with RPMI-8226 leukemia, 60900 nM in the assay on RXF 393 renal and 45.1 µM in the assay on SK-OV-3 ovarian. The TGI in the assay on SF-268 CNS was more than 100 µM; in the assay with CAKI-1 renal it was 66.1 µM; in the assay on NCI-H23 lung it was 29.7 µM; in the assay with SN12C renal it was more than 100 µM; in the assay with SW-620 colon, more than 100 µM; in the assay with UO-31 renal it was more than 100 µM. The TGI was more than 100 µM in the assay with HCT-15 colon, 32.4 µM in the assay with RPMI-8226 leukemia, more than 100 µM in the assay with RXF 393 renal and more than 100 µM with SK-OV-3 ovarian.
With `COc1cccc(C2C3=C(COC3=O)N(CCO)c3cc4c(cc32)OCO4)c1` (centres undefined), the GI50 in the assay on SF-268 CNS is 1530 nM; in the assay with CAKI-1 renal, 0.449 µM; in the assay on NCI-H23 lung it was 589 nM; in the assay with SW-620 colon it was 229 nM; in the assay on UO-31 renal, 297 nM; with HCT-15 colon, 1020 nM. Also, the GI50 was 706 nM in the assay on RPMI-8226 leukemia, 99.4 nM in the assay with RXF 393 renal and 0.289 µM with SK-OV-3 ovarian. Further, the TGI is 49.2 µM with SF-268 CNS; more than 50 µM with CAKI-1 renal; more than 14.2 µM with NCI-H23 lung; more than 50 µM with SN12C renal; more than 50 µM with SW-620 colon; more than 50 µM in the assay on UO-31 renal. In addition, the TGI is more than 50 µM in the assay on HCT-15 colon, more than 50 µM in the assay with RPMI-8226 leukemia, 0.352 µM with RXF 393 renal and more than 13.8 µM in the assay on SK-OV-3 ovarian.
Consider `O=C1c2ccccc2C(=O)c2sc(Nc3ccccc3Cl)nc21`, for which the TGI in the assay with SF-268 CNS amounted to 23.7 µM; in the assay on CAKI-1 renal, 18.4 µM; in the assay on NCI-H23 lung it was 17.5 µM; in the assay with SN12C renal, 21.1 µM; in the assay on SW-620 colon it was 8.97 µM; in the assay on UO-31 renal it was 24.4 µM. In addition, the TGI in the assay with HCT-15 colon was determined as 29.6 µM; in the assay on RPMI-8226 leukemia it was 10.6 µM; with RXF 393 renal, 30 µM; with SK-OV-3 ovarian, 33.7 µM.
On to `Cn1c(=S)c2[nH]c(SCCN3C(=O)c4ccccc4C3=O)nc2n(C)c1=O`, for which the TGI with SF-268 CNS, in the assay on CAKI-1 renal, with NCI-H23 lung, in the assay with SN12C renal, in the assay with SW-620 colon and with UO-31 renal was more than 100 µM throughout. For the same compound, the TGI with HCT-15 colon, with RPMI-8226 leukemia, in the assay with RXF 393 renal and in the assay on SK-OV-3 ovarian was more than 100 µM throughout.
For `O=S(=O)(Nc1ccc(F)c(Cl)c1)c1ccc(-c2cnc(C3CC3)o2)cc1`, the GI50 with SF-268 CNS was 1240 nM; in the assay on CAKI-1 renal, 0.179 µM; in the assay on NCI-H23 lung, 593 nM; in the assay with SN12C renal it was 0.663 µM; in the assay with SW-620 colon, 159 nM; with UO-31 renal it was 584 nM. The GI50 was 113 nM in the assay with HCT-15 colon, 388 nM with RPMI-8226 leukemia, 196 nM in the assay on RXF 393 renal and 0.728 µM in the assay with SK-OV-3 ovarian. For the same compound, the TGI in the assay with SF-268 CNS came out at 11.3 µM; in the assay with CAKI-1 renal, 11.7 µM; with NCI-H23 lung, 11.3 µM; in the assay on SN12C renal it was 10.8 µM; in the assay with SW-620 colon, 13.9 µM; in the assay on UO-31 renal, 6.37 µM. Besides, the TGI in the assay with HCT-15 colon was 11.2 µM; with RPMI-8226 leukemia, more than 31.9 µM; with RXF 393 renal it was 1.28 µM; in the assay with SK-OV-3 ovarian, 14.4 µM.

The record behind these values is PubChem BioAssay (NCI).
